According to the NIST ThermoML archive (doi:10.1021/je8008254):
Where “and” joins values, the source holds several entries; their conditions need not be identical. Equal entries are not always repeated.

Legend:
[1] = for mass density / viscosity: 101 kPa, Liquid
[2] = xn = mol fraction of the nth substance listed; conditions: 101 kPa, Liquid

CCCCn1cc[n+](C)c1.N#C[S-] [1-butyl-3-methylimidazolium thiocyanate]
[1]
Conditions | mass density [kg/m3] | viscosity
298.15 K | 1069.79 | 51.7 mPa·s
308.15 K | 1063.89 | 34.9 mPa·s
318.15 K | 1058.02 | 24.2 mPa·s
328.15 K | 1052.19 | 16.7 mPa·s
338.15 K | 1046.43 | 12.73 mPa·s and 12.7 mPa·s
348.15 K | 1040.7 | 9.98 mPa·s

Conditions | Glass transition temperature [°C]
[1], Glass, DTA | -91.5

CCCCn1cc[n+](C)c1.N#C[S-] [1-butyl-3-methylimidazolium thiocyanate] + CCO
[2]
Conditions | mass density [kg/m3] | viscosity [mPa·s]
298.15 K, x1 = 0.0473 | 829.74 | 1.48
298.15 K, x1 = 0.1129 | 876.41 | 2.07
298.15 K, x1 = 0.1877 | 916.69 | 2.95
298.15 K, x1 = 0.2943 | 957.41 | 4.7
298.15 K, x1 = 0.3637 | 978.05 | 6.36
298.15 K, x1 = 0.5306 | 1014.59 | 11.7
298.15 K, x1 = 0.696 | 1039.72 | 19.7
298.15 K, x1 = 0.8114 | 1052.9 | 27.4
298.15 K, x1 = 0.9174 | 1062.78 | 36.2
298.15 K, x1 = 1 | 1069.79 | 51.7
308.15 K, x1 = 0.0473 | 821.61 | 1.23
308.15 K, x1 = 0.1129 | 868.74 | 1.71
308.15 K, x1 = 0.1877 | 909.46 | 2.41
308.15 K, x1 = 0.2943 | 950.56 | 3.77
308.15 K, x1 = 0.3637 | 971.37 | 4.95
308.15 K, x1 = 0.5306 | 1008.22 | 8.89
308.15 K, x1 = 0.696 | 1033.57 | 14.3
308.15 K, x1 = 0.8114 | 1046.84 | 19.2
308.15 K, x1 = 0.9174 | 1056.82 | 24.7
308.15 K, x1 = 1 | 1063.89 | 34.9
318.15 K, x1 = 0.0473 | 813.39 | 1.05
318.15 K, x1 = 0.1129 | 861.06 | 1.44
318.15 K, x1 = 0.1877 | 902.2 | 2.01
318.15 K, x1 = 0.2943 | 943.72 | 3.1
318.15 K, x1 = 0.3637 | 964.72 | 3.94
318.15 K, x1 = 0.5306 | 1001.9 | 7
318.15 K, x1 = 0.696 | 1027.47 | 10.9
318.15 K, x1 = 0.8114 | 1040.84 | 14.2
318.15 K, x1 = 0.9174 | 1050.88 | 17.8
318.15 K, x1 = 1 | – | 24.2
328.15 K, x1 = 0.0473 | 805.05 | 0.896
328.15 K, x1 = 0.1129 | 853.27 | 1.23
328.15 K, x1 = 0.1877 | 894.91 | 1.71
328.15 K, x1 = 0.2943 | 936.87 | 2.59
328.15 K, x1 = 0.3637 | 958.11 | 3.24
328.15 K, x1 = 0.5306 | 995.61 | 5.97
328.15 K, x1 = 0.696 | 1021.4 | 8.54
328.15 K, x1 = 0.8114 | 1034.86 | 10.9
328.15 K, x1 = 0.9174 | 1044.99 | 13.4
328.15 K, x1 = 1 | 1052.19 | 16.7
338.15 K, x1 = 0.0473 | 796.53 | 0.78
338.15 K, x1 = 0.1129 | 845.44 | 1.06
338.15 K, x1 = 0.1877 | 887.57 | 1.47
338.15 K, x1 = 0.2943 | 930.03 | 2.2
338.15 K, x1 = 0.3637 | 951.47 | 2.75
338.15 K, x1 = 0.5306 | 989.36 | 4.56
338.15 K, x1 = 0.696 | 1015.36 | 6.84
338.15 K, x1 = 0.8114 | 1028.95 | 8.64
338.15 K, x1 = 0.9174 | 1039.15 | 10.5
338.15 K, x1 = 1 | 1046.43 | 12.73
348.15 K, x1 = 0.0473 | 787.85 | –
348.15 K, x1 = 0.1129 | 837.47 | 0.926
348.15 K, x1 = 0.1877 | 880.22 | 1.28
348.15 K, x1 = 0.2943 | 923.18 | 1.9
348.15 K, x1 = 0.3637 | 944.88 | –
348.15 K, x1 = 0.5306 | 983.14 | 3.8
348.15 K, x1 = 0.696 | 1009.4 | 5.58
348.15 K, x1 = 0.8114 | 1023.05 | 7.01
348.15 K, x1 = 0.9174 | 1033.34 | 8.39
348.15 K, x1 = 1 | 1040.7 | 9.98
